The source of these data is PMC10720383, “Acetylcholinesterase Inhibition in Rats and Humans Following Acute Fenitrothion Exposure Predicted by Physiologically Based Kinetic Modeling-Facilitated Quantitative In Vitro to In Vivo Extrapolation” (Environmental Science & Technology, 2023).

The target of series [1] is T1, self-prepared rat erythrocyte AChE (Rattus norvegicus, UniProt P37136).
T1 construct: rat erythrocyte AChE was prepared from rat whole; tissue BioIVT (West Sussex, UK); host or cells: rat whole blood (Sprague-Dawley, mixed gender, LiHep); erythrocyte AChE prepared in house
As to the kind of experiment: In vitro AChE inhibition assay with self-prepared rat erythrocyte AChE in low-protein medium. The format is biochemical. On the procedure: (§1) Inhibition of rat and human erythrocyte AChE by FNT and FNO was determined using rat and human blood. Additionally, in vitro AChE inhibition assay was also performed by exposing recombinant human AChE and self-prepared rat erythrocyte AChE to FNT and FNO in a low-protein medium to investigate the potential effect induced by blood matrix. Details are provided in the Supporting Information. […]
(§2) the remaining AChE activity in rat and human blood samples, respectively. Assays were conducted in triplicate, and the data obtained were analyzed in GraphPad Prism (version 5.04, San Diego, CA, USA) to define the concentration resulting in 50% inhibition (IC50).
(§3) In vitro AChE inhibition assay with self-prepared rat erythrocyte AChE and recombinant human […]
(§4) Based on the method described in Zhao et al. (2021), rat erythrocyte AChE was prepared from rat whole blood and the AChE activity was quantified (0.16 U/mL). The inhibition ability of FNT and FNO towards rhAChE and rat erythrocyte AChE was evaluated using a modified protocol (Zhao et al. 2021), and assays were conducted in triplicate. […] After 15 min incubation at 37℃, 150 µL reaction reagent (mixture of ATC at a final concentration of 150 µM and DTNB at a final concentration of 75 µM) was added, and the absorbance at 412 nm was measured continuously for 10 min at 37℃ to test the remaining AChE activity. The AChE activity was expressed as the remaining AChE activity relative to solvent control (100% activity) and positive control (0% activity) based on the equation (Eq S2): […]
(§5) A 412(t10 - t0) Test Compoundwhere is the change of the absorbance at 412 nm between 0 min and 10 min for the test compound; similarly, A 412(t10 - t0) Positive Control is the change of the absorbance for the CPO sample, and A 412(t10 - t0) Solvent Control the change of the absorbance for the 0.2% ethanol sample. […]
(§6) is relevant for the toxicity prediction following acute FNT exposure. The normalized sensitivity coefficients (SCs) were calculated with the equation (Eq S3)

The next series addresses T2, human erythrocyte AChE (Homo sapiens, UniProt P22303).
T2 construct: tissue CTIBiotech (Lyon, France); host or cells: human whole peripheral blood, K2EDTA
As to the kind of experiment: In vitro AChE inhibition assay with human blood. Type of series: biochemical. As for the experimental part: as §1
(§7) Calculation of kinetic parameters […]
(§8) Protein concentration determination for rat and human plasma […]
(§9) In vitro AChE inhibition assay with rat and human blood
(§10) Inhibition of rat and human erythrocyte AChE by FNT and FNO was determined using the protocol from Kasteel et al. (2021). The final concentrations of FNT and FNO in rat and human blood ranged from 0.05 to 500 µM and from 0.01 to 20 µM, respectively (added from 1000 times concentrated stock solutions in ethanol). Absorbance at 436 nm was measured continuously for 60 min and 10 min to detect […]
(§11) the remaining AChE activity in rat and human blood samples, respectively. Assays were conducted in triplicate, and the data obtained were analyzed in GraphPad Prism (version 5.04, San Diego, CA, USA) to define the concentration resulting in 50% inhibition (IC50). […]

For series [2] the following is noted: assumed default for neutral and acidic compounds, no experimental data; cited from earlier work.
The next series concerns the target T3, rat erythrocyte AChE (Rattus norvegicus, UniProt P37136).
T3 construct: tissue Innovative Research Inc. (Novi, MI, USA); host or cells: rat whole blood (Sprague-Dawley), K2EDTA
As to the kind of experiment: In vitro AChE inhibition assay with rat blood. Type of series: biochemical. On the procedure:
as §1, §7, §8, §9, §10, §11

In the next series the target is T4, recombinant human AChE (Homo sapiens, UniProt P22303).
T4 construct: purchased Sigma-Aldrich (St. Louis, MO, USA)
The series is described as follows: In vitro AChE inhibition assay with recombinant human AChE in low-protein medium. The format is biochemical. As for the experimental part: as §1, §2, §3, §4, §5, §6

T1 sequence (P37136 other isoform, or with tags, fused parts or gaps): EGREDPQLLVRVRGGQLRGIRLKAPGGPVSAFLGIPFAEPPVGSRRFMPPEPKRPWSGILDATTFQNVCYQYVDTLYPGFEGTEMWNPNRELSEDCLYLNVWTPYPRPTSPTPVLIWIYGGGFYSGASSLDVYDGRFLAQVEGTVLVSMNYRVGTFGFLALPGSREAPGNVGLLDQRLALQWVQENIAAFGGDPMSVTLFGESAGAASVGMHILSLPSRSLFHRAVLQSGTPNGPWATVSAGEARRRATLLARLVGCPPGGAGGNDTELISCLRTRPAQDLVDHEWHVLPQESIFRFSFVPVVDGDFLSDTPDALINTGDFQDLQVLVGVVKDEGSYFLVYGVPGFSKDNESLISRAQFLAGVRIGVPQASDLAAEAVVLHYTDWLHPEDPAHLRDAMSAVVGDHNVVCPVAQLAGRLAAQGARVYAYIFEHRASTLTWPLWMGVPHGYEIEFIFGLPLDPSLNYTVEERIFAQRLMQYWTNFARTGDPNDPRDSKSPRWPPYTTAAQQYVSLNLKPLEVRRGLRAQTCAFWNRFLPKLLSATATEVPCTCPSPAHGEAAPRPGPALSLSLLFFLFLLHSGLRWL
T4 sequence (P22303 32-614): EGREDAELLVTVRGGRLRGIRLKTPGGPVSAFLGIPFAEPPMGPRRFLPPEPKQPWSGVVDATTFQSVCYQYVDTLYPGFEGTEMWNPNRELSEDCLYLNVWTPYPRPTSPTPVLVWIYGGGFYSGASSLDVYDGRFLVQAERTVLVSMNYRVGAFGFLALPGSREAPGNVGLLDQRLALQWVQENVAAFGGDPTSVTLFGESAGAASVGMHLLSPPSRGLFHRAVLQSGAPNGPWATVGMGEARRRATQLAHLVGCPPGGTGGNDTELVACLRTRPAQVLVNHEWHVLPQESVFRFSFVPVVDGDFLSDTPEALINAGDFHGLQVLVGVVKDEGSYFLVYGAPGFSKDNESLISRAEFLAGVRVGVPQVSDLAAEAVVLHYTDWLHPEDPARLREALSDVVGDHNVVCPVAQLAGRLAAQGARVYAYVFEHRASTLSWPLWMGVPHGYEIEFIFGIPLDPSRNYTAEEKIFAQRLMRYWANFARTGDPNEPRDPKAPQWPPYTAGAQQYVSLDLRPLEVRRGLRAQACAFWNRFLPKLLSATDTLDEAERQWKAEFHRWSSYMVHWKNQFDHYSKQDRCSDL
T2 sequence (P22303 32-617 isoform P22303-2 limits assumed): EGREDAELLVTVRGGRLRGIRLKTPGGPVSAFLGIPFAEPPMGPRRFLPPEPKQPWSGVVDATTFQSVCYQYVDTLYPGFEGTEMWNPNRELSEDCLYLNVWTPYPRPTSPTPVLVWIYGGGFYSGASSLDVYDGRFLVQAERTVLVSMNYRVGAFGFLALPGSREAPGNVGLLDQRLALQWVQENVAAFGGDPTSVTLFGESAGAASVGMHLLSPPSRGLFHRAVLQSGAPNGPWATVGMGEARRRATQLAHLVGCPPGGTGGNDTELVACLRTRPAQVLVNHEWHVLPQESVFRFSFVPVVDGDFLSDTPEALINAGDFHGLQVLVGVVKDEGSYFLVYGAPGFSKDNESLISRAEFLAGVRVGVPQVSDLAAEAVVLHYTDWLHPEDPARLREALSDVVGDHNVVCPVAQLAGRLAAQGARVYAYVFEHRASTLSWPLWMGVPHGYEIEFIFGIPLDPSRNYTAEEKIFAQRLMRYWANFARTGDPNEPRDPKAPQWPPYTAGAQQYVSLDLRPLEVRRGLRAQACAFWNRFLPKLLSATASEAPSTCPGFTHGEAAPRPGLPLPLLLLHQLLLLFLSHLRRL
T3 sequence (P37136 other isoform, or with tags, fused parts or gaps): as the sequence (P37136 other isoform, or with tags, fused parts or gaps) above

The term IC50 denotes the concentration at which inhibition is half-maximal. As to `COP(=O)(OC)Oc1ccc([N+](=O)[O-])c(C)c1` [FNO, fenitrooxon], the IC50 in series [1] is 180 nM; on human erythrocyte AChE it was 840 nM; against rat erythrocyte AChE, 950 nM; on recombinant human AChE, 250 nM. In series [1] (ratio of IC50 in rat blood to IC50 with self-prepared enzyme), the “IC50 fold lower with self-prepared rat erythrocyte AChE than in rat blood” value is 5.3 fold. Also, the “blood plasma ratio (BPr)” value in series [2] is recorded as 0.55. The “IC50 fold lower with recombinant human AChE than in human blood” value on recombinant human AChE (ratio of IC50 in human blood to IC50 with recombinant enzyme) stood at 3.4 fold.

Take `COP(=S)(OC)Oc1ccc([N+](=O)[O-])c(C)c1` [FNT, O,O-dimethyl O-4-nitro-m-tolyl phosphorothioate]: the concentration for half-maximal inhibition (IC50) was 8240 nM in series [1], over 500000 nM at human erythrocyte AChE, about 500000 nM on rat erythrocyte AChE and 30900 nM at recombinant human AChE. Also, the “blood plasma ratio (BPr)” value in series [2] is reported as 0.55.
